Reference: patent US20090191173A1, “Induction Of Neurogenesis And Stem Cell Therapy In Combination With Copolymer 1” (priority 2004, published 2009)

Columns and labels:
[1] = test system: aNPCs; assay: Neuronal differentiation of aNPCs with CD4+ T cells, T cell-conditioned medium or cytokines; format: cell-based, mouse; conditions: 5 days in culture with cytokine, concentrations as low as 1 ng/ml
Experimental: (xvii) Co-culturing of neural progenitor cells and T cells. CD4+ T cells were purified from lymph nodes of 8-week-old C57B16/J mice as previously described (Kipnis et al., 2004). T cells were activated in RPMI medium supplemented with L-glutamine (2 mM), 2-mercaptoethanol (5×10^−5 M), sodium pyruvate (1 mM), penicillin (100 IU/ml), streptomycin (100 μg/ml), nonessential amino acids (1 ml/100 ml), and autologous serum 2% (v/v) in the presence of mouse recombinant IL-2 (mrIL-2; 5 ng/ml) and soluble anti-CD28 and anti-CD3. antibodies (1 ng/ml). T cells were co-cultured (5×10^4 cells/well) with aNPCs (5×10^4 cells/well) for 5 d on cover slips coated with Matrigel (BD Biosciences) in 24-well plates. The cultures were then fixed with 2.5% paraformaldehyde in PBS for 30 min at room temperature and stained for neuronal markers.
We therefore sought to determine whether direct interaction between aNPCs and T cells would also result in an altered pattern of aNPC differentiation. To address this question, we activated CD4+ T cells in vitro by a cognate protocol (with anti-CD3 antibodies, anti-CD28 antibodies, and IL-2) for 24 h and then allowed their activation to continue in co-cultures with aNPCs in a transwell culture system. […] After 5 days in culture the aNPCs in the lower chamber were fixed and analyzed for the appearance of newly formed neurons. […]

[2] = test system: microglia; assay: TNF-α and IGF-I expression in treated microglia (RT-PCR, immunocytochemistry); format: cell-based, mouse; conditions: IFN-γ 20 ng/ml
Source text: (vi) Immunocytochemistry. Cover slips from co-cultures of NPCs and mouse microglia were washed with PBS, fixed as described above, treated with a permeabilization/blocking solution containing 10% FCS, 2% bovine serum albumin, 1% glycine, and 0.1% Triton X-100 (Sigma-Aldrich, Rehovot) and stained with a combination of the mouse or rabbit anti-tubulin β-III-isoform C-terminus antibodies (β-III-tubulin; 1:500), rabbit anti-NG2 chondroitin sulfate proteoglycan (NG2; 1:500), mouse anti-RIP (RIP; 1:2000), mouse anti-galactocerebroside (GalC; 1:250), mouse anti-glutamic acid decarboxylase 67 (GAD; 1:1000), mouse anti-nestin (Nestin; 1:1000), rat anti-myelin basic protein (MBP; 1:300) (all from Chemicon, Temecula, Calif.), goat anti-double cortin (DCX; 1:400, Santa Cruz Biotechnology, Santa Cruz, Calif.) and mouse anti-glial fibrillary acidic protein (GFAP; 1:100, Sigma-Aldrich, St. Louis). […] Expression of IGF-1 was detected by goat anti-IGF-1 (1:20, R&D Systems). […]
We assayed the expression of specific mRNAs using semi-quantitative reverse transcription PCR (RT-PCR) with selected gene-specific primer pairs, using OLIGO v6.4 (Molecular Biology Insights, Cascade, Colo.).
The RT-PCR reactions were carried out using 1 μg of cDNA, […] of each primer, and ReadyMix PCR Master Mix (ABgene, Epsom, UK) in 30-μl reactions. […] Signals were quantified using a Gel-Pro analyzer 3.1 (Media Cybernetics).

IFN-γ: recombinant interferon-γ
β-III-tubulin expression in aNPCs [1]: could induce an increase in β-III-tubulin expression | IGF-I mRNA in microglia as a function of time [2]: down-regulation of IGF-I | TNF-α production by microglia as a function of time [2]: transient increase in TNF-α production
